# Test results reported in patent publication US10813931B2, “Methods and compositions relating to the treatment of cancer” (THE BRIGHAM AND WOMEN'S HOSPITAL, INC., priority 2013, dated 2020).
# How the values were obtained:
# [1] = test system: taxane-refractory breast cancer explant; test: Human refractory breast cancer explant, immunohistochemistry; conditions: ex vivo 72 h, taxane-containing regimen or Doxil, N=7
# Protocol: Anonymous human breast cancer tissues (N=7) from patients refractory to taxane-containing regimens were incubated ex vivo in autologous patient serum in the presence or absence of taxane-containing or liposomal doxorubicin (Doxil) regimens for 72 hours. Following fixation in formalin and paraffin embedding, tissue was processed by H&E to identify tumor cells and immunohistochemistry (IHC) was performed to identify protein expression. IHC scores were determined in a third party blinded fashion by multiplying the intensity of staining at the cellular level with the percentage of cells stained per field of view.
# Fresh tumor tissues were collected from breast cancer patients immediately after surgical resection at HCG cancer hospital, Bangalore, India. The tumor samples were transported to the laboratory at 4° C., in appropriate transport buffer within 60 minutes post-resection, for ex-vivo studies and molecular and pathological evaluation. […] After 48 hrs of treatment, tumor cell viability was measured and release of soluble cleaved caspase-3 and caspase-8 were determined.
# Human Tumor tissues were fixed in Phos stop (Roche) containing 4% buffered formalin and embedded in paraffin. […] Immunoreactivity was scored by intensity of staining (0, no staining, 1 weak; 2 moderate; 3 strong) and percentage of positive cells. By multiplying both values, a final score was calculated. […]
# [2] = test system: CD44, Src (Y527), PRAS40 T246, Hck; test: 4T-1 tumor tissue western blot / IHC of CD44 and kinase phosphorylation; format: in vivo, mouse; conditions: diminished by day 19
# Protocol: 4-6 week old Balb/C mice (Charles River, Cambridge Mass.) were inoculated with 10^6 4 T-1 mouse mammary carcinoma cells in the left flank (Charles River, Cambridge Mass.). Mice identified with tumors were treated with docetaxel (DTX) or vehicle twice at 72 hour intervals at 10 mg/kg i.v. or 15 mg/kg i.p. and subsequently treated with dasatinib i.p. or nanoparticles i.v. 72 hours following the final DTX dose. Tumors were harvested at indicated time points and evaluated for protein phosphorylation and expression. Experimental detail provided in supplemental data.
# 1 million 4T-1 mouse mammary carcinoma cells suspended in 100 µL PBS were injected per left flank of 5-6 week old Balb/C (Charles River, Wilmington Mass.). DTX was dissolved in pure Ethanol at a concentration of 50 mg/ml mixed 1:1 with Polysorbate 80 (Tween 80) and brought to a final working concentration with 5% glucose in PBS. Once Tumors became palpable (˜100 mm^3), DTX or vehicle treatments were administered at 100 μL volumes. Dasatinib was dissolved in DMSO to working concentration and delivered as 50 μL injections on indicated days, 50 µL DMSO used as a control in these studies. Tumor volumes were measured by a third party unaware of treatment conditions using digital calipers (Starlett, Athol, Mass.), volumes were assessed by the following formula: (Width×Width×length)/2 and expressed as relative volume increase from day 1. Tumor homogenate was prepared by homogenization of equal weight tissue sections incubated in 3×RIPA buffer containing 2× protease/phosphatase inhibitor cocktail (Thermo Fisher, Waltham, Mass.).
# Cells were generated as described above and plated in 4 chamber glass slides (BD Biosciences, San Jose Calif.) at a concentration of 100,000 cells/ml. Following treatments, cells were washed in PBS and fixed in 4% Paraformaldehyde for 30 minutes. […] Blocking was performed in 10% (v/v) Goat serum in PBS. The cells were labeled with the indicated primary antibodies at 1:100 and tagged with FITC or unconjugated followed by a secondary antibody conjugated with Alexa Fluor 488 or Alexa Fluor 594 (Invitrogen Carlsbad Calif.) at 1:250 were added 24 hours later and incubated for 90 minutes at room temperature in blocking buffer and masked with DAPI-containing hard-set mounting medium (Vector Laboratories, Burlingame Calif.). Bright field and fluorescent images were obtained using three channels on a NIKON Eclipse TI-U microscope with a 20×ELDW, 10× or 40× Plan-Apo objective lens (Nikon, Melville N.Y.). […] For histological quantification, IHC were scored blindly by a clinical pathologist based on number of cells which stain for the target protein (1-4) and multiplied by the intensity of staining as a subjective percentile. This value was expressed as IHC score to quantify the level of staining. […]
structure (smiles),measurement,setting,value
"CC(=O)O[C@@]12CO[C@@H]1C[C@H](O)[C@@]1(C)C(=O)[C@H](O)C3=C(C)[C@@H](OC(=O)[C@H](O)[C@@H](NC(=O)OC(C)(C)C)c4ccccc4)C[C@@](O)([C@@H](OC(=O)c4ccccc4)[C@H]21)C3(C)C [DTX, docetaxel]",CD44 expression (IHC),[1],induced the over-expression of CD44
same,Hck phosphorylation in tumor (IHC),[2]; DTX day 9 vs control,markedly enhanced
same,activated PRAS40 T246 in tumor,[2]; DTX day 9 vs control,enhancement
same,inhibitory residue of Src (Y527) phosphorylation in tumor,[2]; DTX day 9 vs control,Reduction
same,CD44 expression in tumor tissue,[2]; DTX-treated day 9 vs control day 9,significantly enhanced CD44 expression
